# In patent US8741899B2, “(4-chloro-2-fluoro-N-(2-fluorophenyl)-5-[(8aR)-hexahydropyrrolo-[1,2-a]pyrazin-2(1H)-ylcarbonyl]-benzenesulfonamide, and pharmaceutically acceptable salts thereof” (AbbVie Inc., priority 2009, dated 2014):
# Molecular target: T1, Human Cav3.2 Channels (Homo sapiens, UniProt O95180)
# T1 construct: expressed in transfected cells
# Experiment: Electrophysiologic (whole-cell patch-clamp) assessment of calcium channel activity in HEK293 cells stably expressing hCav3.2
# Format: cell-based
# Conditions: −77 mV, geometric mean, read-out: Human Cav3.2 −77 mV IC50 (μM) GeoMean
# Procedure: (i) In Vitro Methods—Electrophysiologic Assessment of Calcium Channel Activity:
# Patch-clamp recordings were performed using HEK293 cells stably expressing hCav3.2. Cells were plated in T175 flasks and grown at 37° C. and under 5% CO2 to approximately 50% confluency. On the day of the experiment, cells were harvested with Detachin™ cell detachment solution (Genlantis, San Diego, Calif.) and maintained in serum-free culture medium supplemented with 25 mM HEPES up to several hours prior to experiment. Whole-cell patch-clamp recordings were obtained using extracellular saline consisting of (mM): 87.5 CsCl, 40 TEA-Cl, 5 CaCl2, 1 MgCl2, 10 HEPES, 10 glucose. The pH was adjusted to 7.2 with CsOH and the osmolarity was adjusted to approximately 310 mOsm with sucrose. Intracellular solution consisted of (mM): 112 CsCl, 27 CsF, 2 NaCl, 8.2 EGTA, 10 HEPES. Prior to an experiment 4 mM Mg2ATP was added and the pH was adjusted to 7.2 with CsOH with an osmolarity of approximately 290 mOsm. A two-pulse voltage protocol was utilized to assess compound inhibition. First, cells were held with an 8 s pre-pulse at −100 mV prior to a 160 ms test pulse to −30 mV. This was followed by an 8 s pre-pulse at approximately −75 mV prior to a […]. Increasing concentrations of antagonist were applied to individual cells in a multi-addition format with 5 minutes in each test concentration. For each cell, responses were normalized to dimethyl sulfoxide vehicle control to generate concentration-response curves.
# T1 sequence (O95180 whole entry): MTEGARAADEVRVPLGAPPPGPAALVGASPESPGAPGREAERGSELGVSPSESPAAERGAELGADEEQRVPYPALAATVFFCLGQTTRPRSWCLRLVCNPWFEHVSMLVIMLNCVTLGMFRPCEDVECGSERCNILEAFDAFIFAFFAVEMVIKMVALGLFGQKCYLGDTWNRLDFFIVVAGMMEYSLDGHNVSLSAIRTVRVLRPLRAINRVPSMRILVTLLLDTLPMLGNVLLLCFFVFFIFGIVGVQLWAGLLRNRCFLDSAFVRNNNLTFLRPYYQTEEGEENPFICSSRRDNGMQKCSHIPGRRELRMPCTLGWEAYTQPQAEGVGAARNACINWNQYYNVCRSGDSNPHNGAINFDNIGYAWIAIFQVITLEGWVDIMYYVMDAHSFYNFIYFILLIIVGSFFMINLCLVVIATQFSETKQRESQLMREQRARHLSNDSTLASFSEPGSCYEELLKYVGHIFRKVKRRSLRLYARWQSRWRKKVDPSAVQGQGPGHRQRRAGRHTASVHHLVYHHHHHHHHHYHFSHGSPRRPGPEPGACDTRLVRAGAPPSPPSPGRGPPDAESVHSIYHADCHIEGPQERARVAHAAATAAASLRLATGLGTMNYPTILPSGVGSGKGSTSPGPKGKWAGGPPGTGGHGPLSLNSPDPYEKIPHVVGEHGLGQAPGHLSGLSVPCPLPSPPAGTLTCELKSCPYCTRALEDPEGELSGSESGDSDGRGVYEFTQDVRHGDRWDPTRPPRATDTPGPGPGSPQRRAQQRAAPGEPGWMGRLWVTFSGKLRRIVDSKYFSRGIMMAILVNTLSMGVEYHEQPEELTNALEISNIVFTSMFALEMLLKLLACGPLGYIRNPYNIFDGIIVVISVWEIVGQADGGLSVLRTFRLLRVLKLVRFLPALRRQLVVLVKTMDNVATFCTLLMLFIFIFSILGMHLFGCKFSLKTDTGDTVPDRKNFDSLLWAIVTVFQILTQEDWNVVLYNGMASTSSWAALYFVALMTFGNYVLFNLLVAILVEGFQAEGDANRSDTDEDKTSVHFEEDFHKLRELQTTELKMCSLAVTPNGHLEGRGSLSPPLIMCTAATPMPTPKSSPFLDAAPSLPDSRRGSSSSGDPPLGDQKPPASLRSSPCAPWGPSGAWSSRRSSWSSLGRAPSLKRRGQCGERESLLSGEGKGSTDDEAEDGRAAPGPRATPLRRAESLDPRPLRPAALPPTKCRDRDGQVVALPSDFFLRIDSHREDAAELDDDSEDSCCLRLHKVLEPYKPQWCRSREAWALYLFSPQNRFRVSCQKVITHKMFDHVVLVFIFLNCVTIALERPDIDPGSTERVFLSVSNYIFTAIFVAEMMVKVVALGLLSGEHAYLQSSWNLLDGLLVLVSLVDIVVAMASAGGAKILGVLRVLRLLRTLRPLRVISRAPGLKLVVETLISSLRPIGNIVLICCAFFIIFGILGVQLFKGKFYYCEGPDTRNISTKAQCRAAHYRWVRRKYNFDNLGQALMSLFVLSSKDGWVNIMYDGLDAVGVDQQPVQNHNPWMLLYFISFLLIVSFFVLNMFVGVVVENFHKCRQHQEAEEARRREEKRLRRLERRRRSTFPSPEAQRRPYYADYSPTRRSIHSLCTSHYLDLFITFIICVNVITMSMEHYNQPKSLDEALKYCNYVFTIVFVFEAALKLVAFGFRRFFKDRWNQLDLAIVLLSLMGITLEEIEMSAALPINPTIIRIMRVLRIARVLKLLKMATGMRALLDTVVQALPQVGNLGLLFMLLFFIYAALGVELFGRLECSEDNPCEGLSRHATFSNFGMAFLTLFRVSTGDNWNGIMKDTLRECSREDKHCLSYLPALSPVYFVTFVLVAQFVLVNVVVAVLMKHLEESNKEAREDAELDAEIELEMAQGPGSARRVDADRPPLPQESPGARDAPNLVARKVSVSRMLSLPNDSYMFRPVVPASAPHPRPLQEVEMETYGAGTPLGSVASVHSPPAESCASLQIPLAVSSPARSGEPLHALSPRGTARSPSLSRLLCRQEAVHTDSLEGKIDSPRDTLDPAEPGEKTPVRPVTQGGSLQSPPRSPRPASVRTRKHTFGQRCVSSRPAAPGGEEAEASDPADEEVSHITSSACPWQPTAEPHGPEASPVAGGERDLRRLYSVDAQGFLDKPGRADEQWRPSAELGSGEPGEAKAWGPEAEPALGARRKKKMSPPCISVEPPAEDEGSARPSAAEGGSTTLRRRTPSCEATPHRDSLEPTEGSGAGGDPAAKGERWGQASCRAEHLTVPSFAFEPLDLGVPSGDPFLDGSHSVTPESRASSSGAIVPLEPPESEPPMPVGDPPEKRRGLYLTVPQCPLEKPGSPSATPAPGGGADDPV
row,IC50 [µM],SMILES
1,4.6,"O=C(c1cc(S(=O)(=O)Nc2ccccc2F)c(F)cc1Cl)N1CCN2CCC[C@H]2C1 [Example 58, 4-chloro-2-fluoro-N-(2-fluorophenyl)-5-[(8aS)-hexahydropyrrolo[1,2-a]pyrazin-2(1H)-ylcarbonyl]benzenesulfonamide]"
2,9,"O=C(c1cc(S(=O)(=O)NCCC(c2ccccc2)c2ccccc2)c(F)cc1Cl)N1CCN2CCC[C@H]2C1 [Example 59, 4-chloro-N-(3,3-diphenylpropyl)-2-fluoro-5-[(8aS)-hexahydropyrrolo[1,2-a]pyrazin-2(1H)-ylcarbonyl]benzenesulfonamide]"
3,5,"O=C(N[C@@H]1C[C@H]1c1ccccc1)c1cccc(S(=O)(=O)N2CCN3CCC[C@H]3C2)c1 [Example 60, 3-[(8aS)-hexahydropyrrolo[1,2-a]pyrazin-2(1H)-ylsulfonyl]-N-[(1R,2S)-2-phenylcyclopropyl]benzamide]"
4,> 10,"O=C(c1cccc(S(=O)(=O)N[C@@H]2C[C@H]2c2ccccc2)c1)N1CCN2CCC[C@H]2C1 [Example 61, 3-[(8aS)-hexahydropyrrolo[1,2-a]pyrazin-2(1H)-ylcarbonyl]-N-[(1R,2S)-2-phenylcyclopropyl]benzenesulfonamide]"
5,> 10,"O=C(c1ccc(S(=O)(=O)N[C@H](CO)c2ccccc2)cc1)N1CCN2CCC[C@@H]2C1 [Example 62, 4-[(8aR)-hexahydropyrrolo[1,2-a]pyrazin-2(1H)-ylcarbonyl]-N-[(1S)-2-hydroxy-1-phenylethyl]benzenesulfonamide]"
6,> 10,"O=C(c1cc(S(=O)(=O)N2CCc3ccccc32)c(F)cc1Cl)N1CCN2CCC[C@@H]2C1 [Example 63, (8aR)-2-[2-chloro-5-(2,3-dihydro-1H-indol-1-ylsulfonyl)-4-fluorobenzoyl]octahydropyrrolo[1,2-a]pyrazine]"
7,1.84,"O=C(c1ccc(F)c(NS(=O)(=O)c2cccc(C(F)(F)F)c2)c1)N1CCN2CCC[C@@H]2C1 [Example 65, N-{2-fluoro-5-[(8aR)-hexahydropyrrolo[1,2-a]pyrazin-2(1H)-ylcarbonyl]phenyl}-3-(trifluoromethyl)benzenesulfonamide]"
8,5.9,"CN(c1ccccc1F)S(=O)(=O)c1cc(C(=O)N2CCN3CCC[C@@H]3C2)c(Cl)cc1F [Example 66, 4-chloro-2-fluoro-N-(2-fluorophenyl)-5-[(8aR)-hexahydropyrrolo[1,2-a]pyrazin-2(1H)-ylcarbonyl]-N-methylbenzenesulfonamide]"
9,3.18,"O=C(c1cc(S(=O)(=O)N2CCN(c3ccc(F)cc3)CC2)c(F)cc1Cl)N1CCN2CCC[C@@H]2C1 [Example 67, (8aR)-2-(2-chloro-4-fluoro-5-{[4-(4-fluorophenyl)piperazin-1-yl]sulfonyl}benzoyl)octahydropyrrolo[1,2-a]pyrazine]"
10,10.9,"O=C(Nc1cc(C(=O)N2CCN3CCC[C@@H]3C2)ccc1Cl)c1ccc(F)cc1 [Example 68, N-{2-chloro-5-[(8aR)-hexahydropyrrolo[1,2-a]pyrazin-2(1H)-ylcarbonyl]phenyl}-4-fluorobenzamide]"
11,> 10,"CN(c1cccc(C(=O)N2CCN3CCC[C@@H]3C2)c1)S(=O)(=O)c1cccc(C(F)(F)F)c1 [Example 69, N-{3-[(8aR)-hexahydropyrrolo[1,2-a]pyrazin-2(1H)-ylcarbonyl]phenyl}-N-methyl-3-(trifluoromethyl)benzenesulfonamide]"
12,7.2,"O=C(c1cc(S(=O)(=O)NCC(c2ccccc2)c2ccccc2)c(F)cc1Cl)N1CCN2CCC[C@@H]2C1 [Example 70, 4-chloro-N-(2,2-diphenylethyl)-2-fluoro-5-[(8aR)-hexahydropyrrolo[1,2-a]pyrazin-2(1H)-ylcarbonyl]benzenesulfonamide]"
13,> 10,"Cc1cc(C(=O)N2CCN3CCC[C@@H]3C2)ccc1NC(=O)c1ccc2ccccc2c1 [Example 72, N-{4-[(8aR)-hexahydropyrrolo[1,2-a]pyrazin-2(1H)-ylcarbonyl]-2-methylphenyl}-2-naphthamide]"

# The next lines start with the compound.
row,SMILES,IC50 [µM]
1,"O=C(c1cccc(S(=O)(=O)Nc2cccc(C(F)(F)F)c2)c1)N1CCN2CCCCC2C1 (centres unmarked) [Example 38, 3-(octahydro-2H-pyrido[1,2-a]pyrazin-2-ylcarbonyl)-N-[3-(trifluoromethyl)phenyl]benzenesulfonamide]",4.6
2,"O=C(c1cccc(S(=O)(=O)Nc2ccccc2F)c1)N1CCN2CCCCC2C1 (centres unmarked) [Example 39, N-(2-fluorophenyl)-3-(octahydro-2H-pyrido[1,2-a]pyrazin-2-ylcarbonyl)benzenesulfonamide]",4.1
3,"O=C(c1cccc(S(=O)(=O)Nc2ccc(F)cc2)c1)N1CCC(N2CCCC2)CC1 [Example 40, N-(4-fluorophenyl)-3-[(4-pyrrolidin-1-ylpiperidin-1-yl)carbonyl]benzenesulfonamide]",4.1
4,"O=C(c1cccc(S(=O)(=O)Nc2ccccc2)c1)N1CCC(N2CCCC2)CC1 [Example 41, N-phenyl-3-[(4-pyrrolidin-1-ylpiperidin-1-yl)carbonyl]benzenesulfonamide]",5
5,"O=C(c1cccc(S(=O)(=O)Nc2ccc(C(F)(F)F)cc2)c1)N1CCC(N2CCCC2)CC1 [Example 42, 3-[(4-pyrrolidin-1-ylpiperidin-1-yl)carbonyl]-N-[4-(trifluoromethyl)phenyl]benzenesulfonamide]",5.8
6,"O=C(c1cccc(S(=O)(=O)Nc2cccc(C(F)(F)F)c2)c1)N1CCC(N2CCCC2)CC1 [Example 43, 3-[(4-pyrrolidin-1-ylpiperidin-1-yl)carbonyl]-N-[3-(trifluoromethyl)phenyl]benzenesulfonamide]",4.9
7,"O=C(c1cccc(S(=O)(=O)Nc2cccc(F)c2)c1)N1CCC(N2CCCC2)CC1 [Example 44, N-(3-fluorophenyl)-3-[(4-pyrrolidin-1-ylpiperidin-1-yl)carbonyl]benzenesulfonamide]",4.9
8,"O=C(c1cccc(S(=O)(=O)Nc2ccccc2F)c1)N1CCC(N2CCCC2)CC1 [Example 45, N-(2-fluorophenyl)-3-[(4-pyrrolidin-1-ylpiperidin-1-yl)carbonyl]benzenesulfonamide]",> 10
9,"O=C(c1cccc(S(=O)(=O)Nc2ccc(F)cc2)c1)N1CCC(N2CCCCC2)CC1 [Example 46, 3-(1,4′-bipiperidin-1′-ylcarbonyl)-N-(4-fluorophenyl)benzenesulfonamide]",1.8
10,"O=C(c1cccc(S(=O)(=O)Nc2ccccc2F)c1)N1CCC(N2CCCCC2)CC1 [Example 47, 3-(1,4′-bipiperidin-1′-ylcarbonyl)-N-(2-fluorophenyl)benzenesulfonamide]",3.8
11,"O=C(c1cccc(S(=O)(=O)Nc2cccc(F)c2)c1)N1CCC(N2CCCCC2)CC1 [Example 48, 3-(1,4′-bipiperidin-1′-ylcarbonyl)-N-(3-fluorophenyl)benzenesulfonamide]",> 10
12,"O=C(c1cccc(S(=O)(=O)Nc2ccc(C(F)(F)F)cc2)c1)N1CCC(N2CCCCC2)CC1 [Example 49, 3-(1,4′-bipiperidin-1′-ylcarbonyl)-N-[4-(trifluoromethyl)phenyl]benzenesulfonamide]",1.3
13,"O=C(c1cccc(S(=O)(=O)N2CCN3CCC[C@@H]3C2)c1)N1CCN(C(c2ccc(F)cc2)c2ccc(F)cc2)CC1 [Example 50, (8aR)-2-{[3-({4-[bis(4-fluorophenyl)methyl]piperazin-1-yl}carbonyl)phenyl]sulfonyl}octahydropyrrolo[1,2-a]pyrazine]",0.6
14,"O=C(c1cccc(S(=O)(=O)N2CCN3CCC[C@H]3C2)c1)N1CCN(C(c2ccc(F)cc2)c2ccc(F)cc2)CC1 [Example 51, (8aS)-2-{[3-({4-[bis(4-fluorophenyl)methyl]piperazin-1-yl}carbonyl)phenyl]sulfonyl}octahydropyrrolo[1,2-a]pyrazine]",0.9
15,"O=C(c1cccc(S(=O)(=O)N2CCN3CCC[C@@H]3C2)c1)N1CCN(C(c2ccccc2)c2ccccc2)CC1 [Example 52, (8aR)-2-({3-[(4-benzhydrylpiperazin-1-yl)carbonyl]phenyl}sulfonyl)octahydropyrrolo[1,2-a]pyrazine]",0.6
16,"O=C(NCC(c1ccccc1)c1ccccc1)c1cccc(S(=O)(=O)N2CCN3CCC[C@H]3C2)c1 [Example 53, N-(2,2-diphenylethyl)-3-[(8aS)-hexahydropyrrolo[1,2-a]pyrazin-2(1H)-ylsulfonyl]benzamide]",0.5
17,"O=C(c1cccc(S(=O)(=O)N2CCN3CCC[C@H]3C2)c1)N1CCN(C(c2ccccc2)c2ccccc2)CC1 [Example 54, (8aS)-2-({3-[(4-benzhydrylpiperazin-1-yl)carbonyl]phenyl}sulfonyl)octahydropyrrolo[1,2-a]pyrazine]",1.2
18,"O=C(NCCC(c1ccccc1)c1ccccc1)c1cccc(S(=O)(=O)N2CCN3CCC[C@H]3C2)c1 [Example 55, N-(3,3-diphenylpropyl)-3-[(8aS)-hexahydropyrrolo[1,2-a]pyrazin-2(1H)-ylsulfonyl]benzamide]",1.8
19,"O=C(NCCc1ccc(F)cc1)c1cccc(S(=O)(=O)N2CCN3CCC[C@H]3C2)c1 [Example 56, N-[2-(4-fluorophenyl)ethyl]-3-[(8aS)-hexahydropyrrolo[1,2-a]pyrazin-2(1H)-ylsulfonyl]benzamide]",4.1
